According to ChEMBL document CHEMBL3785054, “Identification of inhibitors for vascular endothelial growth factor receptor by using dynamic combinatorial chemistry” (Bioorg Med Chem Lett, 2016):
pIC50: −log10 of the molar value. Calls of active or inactive are those of the source. The rule behind the calls is not given here.

How the values were obtained:
[1] = test system: Chorioallantoic membrane; assay: Antiangiogenic activity in chicken chorioallantoic membrane assessed as inhibition of vascular branch formation after 3 days; type: functional; settings: Gallus gallus
[2] = test system: MDA-MB-435; assay: Cytotoxicity against human MDA-MB-435 cells by MTT assay; type: functional, cell-based
[3] = test system: A549; assay: Cytotoxicity against human A549 cells by MTT assay; type: functional, cell-based
[4] = Cytotoxicity against human BGC823 cells by MTT assay; type: functional, cell-based; settings: BGC-823
[5] = Cytotoxicity against human PC3 cells by MTT assay; type: functional, cell-based; settings: PC-3
[6] = Cytotoxicity against human […] cells by MTT assay; type: functional, cell-based
[7] = test system: HT-29; assay: Cytotoxicity against human HT-29 cells by MTT assay; type: functional, cell-based

SMILES | inhibition [1] | pIC50 [2] | pIC50 [3] | pIC50 [4] | pIC50 [5] | pIC50 [6] | pIC50 [7] | inhibition ([1]; dose or concentration not given here)
O=C(Nc1ccc2c(/C=N/c3ccccn3)n[nH]c2c1)Nc1nncs1 | Active | 5.32 | 4.25 | < 4.00 | < 4.00 | < 4.00 | 5.03 | 
O=C(Nc1ccc2c(/C=N/c3cccnc3)n[nH]c2c1)Nc1nncs1 | Active | 4.25 | 5.62 | 4.17 | 5.11 | < 4.00 | 4.92 | 
CC1CC(=O)NN=C1c1ccc(NC(=O)Nc2ccc3c(/C=N/c4nccs4)n[nH]c3c2)cc1 (stereo unspecified) |  | 4.64 | 5.05 | 4.11 | 5.25 | 4.95 | 4.89 | 
CCN(CC)CCNC(=O)c1c(C)[nH]c(/C=C2\C(=O)Nc3ccc(F)cc32)c1C [SUNITINIB] |  | 5.03 | 5.04 |  | 4.25 |  | 5.77 | 
O=C(Nc1ccc2c(/C=N/c3ncccn3)n[nH]c2c1)Nc1nccs1 |  | 4.26 | 4.71 | 4.89 | 5.17 | 4.81 | 4.10 | 51.6%
